Data: US20240116985A1, “STAPLED PEPTIDES AND METHODS THEREOF” (priority 2020, published 2024)

Columns and labels:
[1] = target: T1, beta-catenin/TCF4 engagement (Homo sapiens, UniProt P35222); test: Nano-BRET target engagement assay (B-cat-Halo & TCF4-Luc in HEK293 cells); format: cell-based; conditions: absolute IC50; read-out: NanoBRET Abs IC50
T1 construct: expressed in transfected cells; host or cells: HEK293
T1 sequence (P35222 1-781): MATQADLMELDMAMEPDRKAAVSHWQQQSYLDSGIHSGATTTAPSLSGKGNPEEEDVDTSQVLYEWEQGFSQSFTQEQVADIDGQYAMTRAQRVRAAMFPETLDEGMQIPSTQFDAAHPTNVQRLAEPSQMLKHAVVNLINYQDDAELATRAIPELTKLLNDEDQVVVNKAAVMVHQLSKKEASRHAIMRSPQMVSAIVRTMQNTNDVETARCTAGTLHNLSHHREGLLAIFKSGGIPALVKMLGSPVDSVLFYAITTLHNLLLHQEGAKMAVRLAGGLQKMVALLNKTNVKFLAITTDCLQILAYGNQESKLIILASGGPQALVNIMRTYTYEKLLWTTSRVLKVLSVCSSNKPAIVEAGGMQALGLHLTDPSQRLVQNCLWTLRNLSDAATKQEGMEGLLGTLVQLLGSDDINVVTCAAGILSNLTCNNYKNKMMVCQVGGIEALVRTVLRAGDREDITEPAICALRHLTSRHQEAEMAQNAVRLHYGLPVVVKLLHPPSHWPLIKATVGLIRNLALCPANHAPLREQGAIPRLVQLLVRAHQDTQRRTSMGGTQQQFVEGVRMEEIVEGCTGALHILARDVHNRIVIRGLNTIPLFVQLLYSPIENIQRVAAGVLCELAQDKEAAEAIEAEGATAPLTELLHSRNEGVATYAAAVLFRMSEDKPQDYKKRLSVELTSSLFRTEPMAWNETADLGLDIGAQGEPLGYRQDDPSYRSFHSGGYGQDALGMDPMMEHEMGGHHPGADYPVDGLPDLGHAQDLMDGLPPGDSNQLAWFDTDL

[2] = target: T2, full-length beta-Catenin (Uniprot ID P35222) (Homo sapiens, UniProt P35222); test: Fluorescence polarization IC50 (beta-catenin / 5FAM-TCF4 10-53 competition); format: binding; conditions: fluorescence polarization; read-out: beta-Catenin FP IC50
T2 construct: 10 nM full-length beta-Catenin (Uniprot ID P35222)
T2 sequence (P35222 1-781): T1 sequence (P35222 1-781)

| SMILES | IC50 [1] | IC50 [2] |
| --- | --- | --- |
| CC(=O)N1CCC[C@]12CC=CCCCC1(CCCC=CCCCCCC[C@@](C)(C(=O)N[C@@H](Cc3ccccc3)C(=O)N[C@@H](Cc3csc4ccccc34)C(=O)N[C@@H](CCC(N)=O)C(N)=O)NC(=O)[C@H](CCO)NC(=O)[C@H](Cc3ccccc3)NC(=O)[C@H](C)NC(=O)[C@H](C)NC(=O)[C@H](CCC(=O)O)NC(=O)[C@H](CC(=O)O)NC1=O)NC(=O)[C@H](CCO)NC(=O)[C@H](CC(=O)O)NC2=O (stereo partly drawn) [I-1547, Ac-PL3-Asp-Hse-B5-Asp-Glu-Ala-Ala-Phe-Hse-S8-Phe-BztA-Gln-NH2] | > 20000 nM | 68 nM |
| CC(=O)N1CCC[C@]12CC=CCCCC1(CCCC=CCCCCCC[C@@](C)(C(=O)N[C@@H](Cc3ccccc3)C(=O)N[C@@H](Cc3csc4ccccc34)C(=O)N[C@@H](CCC(N)=O)C(N)=O)NC(=O)[C@H](CCO)NC(=O)[C@H](Cc3ccccc3)NC(=O)[C@H](C)NC(=O)[C@H](C)NC(=O)[C@H](CCC(=O)O)NC(=O)[C@H](CC(=O)O)NC1=O)NC(=O)[C@H](CCO)NC(=O)[C@H](CC(=O)O)NC2=O (stereo partly drawn) [I-1548, Ac-PL3-Asp-Hse-B5-Asp-Glu-Ala-Ala-Phe-Hse-S8-Phe-BztA-Gln-NH2] | > 20000 nM | 28 nM |
| CC(=O)N1CCC[C@]12CC=CCCCC1(CCCC=CCCCCCC[C@@](C)(C(=O)N[C@@H](Cc3ccccc3)C(=O)N[C@@H](Cc3csc4ccccc34)C(=O)N[C@@H](CCC(N)=O)C(N)=O)NC(=O)[C@H](CCC(N)=O)NC(=O)[C@H](Cc3ccccc3)NC(=O)[C@H](C)NC(=O)[C@H](C)NC(=O)[C@H](CCC(=O)O)NC(=O)[C@H](CC(=O)O)NC1=O)NC(=O)[C@H](CCCCN)NC(=O)[C@H](CC(=O)O)NC2=O (stereo partly drawn) [I-1552, Ac-PL3-Asp-Lys-B5-Asp-Glu-Ala-Ala-Phe-Gln-S8-Phe-BztA-Gln-NH2] | > 20000 nM | 56 nM |
| CC(=O)N1CCC[C@]12CC=CCCCC1(CCCC=CCCCCCC[C@@](C)(C(=O)N[C@@H](Cc3ccccc3)C(=O)N[C@@H](Cc3csc4ccccc34)C(=O)N[C@@H](CCC(N)=O)C(N)=O)NC(=O)[C@H](CC(C)C)NC(=O)[C@H](Cc3ccccc3)NC(=O)[C@H](C)NC(=O)[C@H](C)NC(=O)[C@H](CCC(=O)O)NC(=O)[C@H](CC(=O)O)NC1=O)NC(=O)[C@H](CCCCN)NC(=O)[C@H](CC(=O)O)NC2=O (stereo partly drawn) [I-1553, Ac-PL3-Asp-Lys-B5-Asp-Glu-Ala-Ala-Phe-Leu-S8-Phe-BztA-Gln-NH2] | > 20000 nM | 133 nM |
| CC(=O)N1CCC[C@]12CC=CCCCC1(CCCC=CCCCCCC[C@@](C)(C(=O)N[C@@H](Cc3ccccc3)C(=O)N[C@@H](Cc3csc4ccccc34)C(=O)N[C@@H](CCC(N)=O)C(N)=O)NC(=O)[C@H](CCO)NC(=O)[C@H](Cc3ccccc3)NC(=O)[C@H](C)NC(=O)[C@H](C)NC(=O)[C@H](CCC(=O)O)NC(=O)[C@H](CC(=O)O)NC1=O)NC(=O)[C@H](CCCCN)NC(=O)[C@H](CC(=O)O)NC2=O (stereo partly drawn) [I-1554, Ac-PL3-Asp-Lys-B5-Asp-Glu-Ala-Ala-Phe-Hse-S8-Phe-BztA-Gln-NH2] | > 20000 nM | 63 nM |
| CC(=O)N1CCC[C@]12CC=CCCCC1(CCCC=CCCCOC(=O)N3CC[C@@](C(=O)N[C@@H](Cc4ccsc4)C(=O)N[C@@H](Cc4csc5ccccc45)C(=O)N[C@@H](CCC(N)=O)C(N)=O)(C3)NC(=O)[C@H](CC(N)=O)NC(=O)[C@H](Cc3ccccc3)NC(=O)[C@H](C)NC(=O)[C@H](C)NC(=O)[C@H](CC(N)=O)NC(=O)[C@H](CC(N)=O)NC1=O)NC(=O)[C@H](C)NC(=O)[C@H](CC(=O)O)NC2=O (stereo partly drawn) [I-1556, Ac-PL3-Asp-Ala-B5-Asn-Asn-Ala-Ala-Phe-Asn-PyrS2-3Thi-BztA-Gln-NH2] | > 20000 nM | 385 nM |
| CC(=O)N1CCC[C@]12CC=CCCCC1(CCCC=CCCCOC(=O)N3CC[C@@](C(=O)N[C@@H](Cc4ccsc4)C(=O)N[C@@H](Cc4csc5ccccc45)C(=O)N[C@@H](CCC(N)=O)C(N)=O)(C3)NC(=O)[C@H](CC(C)C)NC(=O)[C@H](Cc3ccccc3)NC(=O)[C@H](C)NC(=O)[C@H](C)NC(=O)[C@H](CC(N)=O)NC(=O)[C@H](CC(N)=O)NC1=O)NC(=O)[C@H](CC(C)(C)C)NC(=O)[C@H](CC(=O)O)NC2=O (stereo partly drawn) [I-1557, Ac-PL3-Asp-Npg-B5-Asn-Asn-Ala-Ala-Phe-Leu-PyrS2-3Thi-BztA-Gln-NH2] | > 20000 nM | 342 nM |
| CC(=O)N1CCC[C@]12CC=CCCCC1(CCCC=CCCCOC(=O)N3CC[C@@](C(=O)N[C@@H](Cc4ccsc4)C(=O)N[C@@H](Cc4csc5ccccc45)C(=O)N[C@@H](CCC(N)=O)C(N)=O)(C3)NC(=O)[C@H](CC(N)=O)NC(=O)[C@H](Cc3ccccc3)NC(=O)[C@H](C)NC(=O)[C@H](C)NC(=O)[C@H]([C@@H](C)O)NC(=O)[C@H](CC(N)=O)NC1=O)NC(=O)[C@H](CC(C)(C)C)NC(=O)[C@H](CC(=O)O)NC2=O (stereo partly drawn) [I-1564, Ac-PL3-Asp-Npg-B5-Asn-Thr-Ala-Ala-Phe-Asn-PyrS2-3Thi-BztA-Gln-NH2] | > 20000 nM | 122 nM |

Further lines, results first:

| IC50 [1] | IC50 [2] | SMILES |
| --- | --- | --- |
| > 20000 nM | 26 nM | CC(=O)N1CCC[C@]12CC=CCCCC1(CCCC=CCCCCCC[C@@](C)(C(=O)N[C@@H](Cc3ccccc3)C(=O)N[C@@H](Cc3csc4ccccc34)C(=O)N[C@@H](CCC(N)=O)C(N)=O)NC(=O)[C@H](CCC(N)=O)NC(=O)[C@H](Cc3ccccc3)NC(=O)[C@H](C)NC(=O)[C@H](C)NC(=O)[C@H](CCC(=O)O)NC(=O)[C@H](CC(=O)O)NC1=O)NC(=O)[C@H](CCO)NC(=O)[C@H](CC(=O)O)NC2=O (stereo partly drawn) [I-1545, Ac-PL3-Asp-Hse-B5-Asp-Glu-Ala-Ala-Phe-Gln-S8-Phe-BztA-Gln-NH2] |
| 37900 nM | 71 nM | CC(=O)N1CCC[C@]12CC=CCCCC1(CCCC=CCCCCCC[C@@](C)(C(=O)N[C@@H](Cc3ccccc3)C(=O)N[C@@H](Cc3csc4ccccc34)C(=O)N[C@@H](CCC(N)=O)C(N)=O)NC(=O)[C@H](CC(C)C)NC(=O)[C@H](Cc3ccccc3)NC(=O)[C@H](C)NC(=O)[C@H](C)NC(=O)[C@H](CCC(=O)O)NC(=O)[C@H](CC(=O)O)NC1=O)NC(=O)[C@H](CCO)NC(=O)[C@H](CC(=O)O)NC2=O (stereo partly drawn) [I-1546, Ac-PL3-Asp-Hse-B5-Asp-Glu-Ala-Ala-Phe-Leu-S8-Phe-BztA-Gln-NH2] |
| 11600 nM | 13 nM | CC(=O)N1CCC[C@]12CC=CCCCC1(CCCC=CCCCCCC[C@@](C)(C(=O)N[C@@H](Cc3ccccc3)C(=O)N[C@@H](Cc3csc4ccccc34)C(=O)N[C@@H](CCC(N)=O)C(N)=O)NC(=O)[C@H](CCC(N)=O)NC(=O)[C@H](Cc3ccccc3)NC(=O)[C@H](C)NC(=O)[C@H](C)NC(=O)[C@H](CCC(=O)O)NC(=O)[C@H](CC(=O)O)NC1=O)NC(=O)[C@H](Cc1ccccc1)NC(=O)[C@H](CC(=O)O)NC2=O (stereo partly drawn) [I-1549, Ac-PL3-Asp-Phe-B5-Asp-Glu-Ala-Ala-Phe-Gln-S8-Phe-BztA-Gln-NH2] |
| 15300 nM | 22 nM | CC(=O)N1CCC[C@]12CC=CCCCC1(CCCC=CCCCCCC[C@@](C)(C(=O)N[C@@H](Cc3ccccc3)C(=O)N[C@@H](Cc3csc4ccccc34)C(=O)N[C@@H](CCC(N)=O)C(N)=O)NC(=O)[C@H](CC(C)C)NC(=O)[C@H](Cc3ccccc3)NC(=O)[C@H](C)NC(=O)[C@H](C)NC(=O)[C@H](CCC(=O)O)NC(=O)[C@H](CC(=O)O)NC1=O)NC(=O)[C@H](Cc1ccccc1)NC(=O)[C@H](CC(=O)O)NC2=O (stereo partly drawn) [I-1550, Ac-PL3-Asp-Phe-B5-Asp-Glu-Ala-Ala-Phe-Leu-S8-Phe-BztA-Gln-NH2] |
| 19800 nM | 16 nM | CC(=O)N1CCC[C@]12CC=CCCCC1(CCCC=CCCCCCC[C@@](C)(C(=O)N[C@@H](Cc3ccccc3)C(=O)N[C@@H](Cc3csc4ccccc34)C(=O)N[C@@H](CCC(N)=O)C(N)=O)NC(=O)[C@H](CCO)NC(=O)[C@H](Cc3ccccc3)NC(=O)[C@H](C)NC(=O)[C@H](C)NC(=O)[C@H](CCC(=O)O)NC(=O)[C@H](CC(=O)O)NC1=O)NC(=O)[C@H](Cc1ccccc1)NC(=O)[C@H](CC(=O)O)NC2=O (stereo partly drawn) [I-1551, Ac-PL3-Asp-Phe-B5-Asp-Glu-Ala-Ala-Phe-Hse-S8-Phe-BztA-Gln-NH2] |
| 29300 nM | 180 nM | CC(=O)N1CCC[C@]12CC=CCCCC1(CCCC=CCCCOC(=O)N3CC[C@@](C(=O)N[C@@H](Cc4ccsc4)C(=O)N[C@@H](Cc4csc5ccccc45)C(=O)N[C@@H](CCC(N)=O)C(N)=O)(C3)NC(=O)[C@H](CC(N)=O)NC(=O)[C@H](Cc3ccccc3)NC(=O)[C@H](C)NC(=O)[C@H](C)NC(=O)[C@H](CC(N)=O)NC(=O)[C@H](CC(N)=O)NC1=O)NC(=O)[C@H](CC(C)(C)C)NC(=O)[C@H](CC(=O)O)NC2=O (stereo partly drawn) [I-1555, Ac-PL3-Asp-Npg-B5-Asn-Asn-Ala-Ala-Phe-Asn-PyrS2-3Thi-BztA-Gln-NH2] |
